This passage reports IC50 results from patent US12398154B2, “Azaquinazoline pan-KRas inhibitors” (Mirati Therapeutics, Inc., priority 2020, dated 2025).

Structures are written as SMILES. Where only a bound is given, the exact number is not on record here.

Broadly, the IC50 is the concentration at which inhibition is half-maximal. A lower IC50 goes with greater potency in that assay.

One assay deals with KRas G12S (Homo sapiens, UniProt P01116, G12S). Briefly: biochemical.
The target in a further assay is T1, KRas G13D (Homo sapiens, UniProt P01116, G13D).
T1 construct: Biotinylated KRas (corresponding to amino acids 1-169, produced at Accelegan Inc.); biotin (biotinylated); purchased Accelegan Inc
T1 sequence (P01116 1-169 isoform P01116-2 G13D): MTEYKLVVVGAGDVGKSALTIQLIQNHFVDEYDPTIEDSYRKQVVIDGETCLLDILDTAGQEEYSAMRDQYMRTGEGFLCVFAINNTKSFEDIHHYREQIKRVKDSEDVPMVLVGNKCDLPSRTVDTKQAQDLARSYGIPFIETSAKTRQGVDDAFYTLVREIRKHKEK
Description: KRas binding assay (TR-FRET displacement). In general terms: In TR-FRET formats the signal depends on donor and acceptor labels being close together.

The target in a further assay is KRas G12R (Homo sapiens, UniProt P01116, G12R). Description: biochemical.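 Further: TR-FRET displacement assay of compound binding to KRas, read after one hour at room temperature, potency from a four-parameter fit of percent-of-control values.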
Chain of KRas G12R (P01116 1-169 isoform P01116-2 G12R): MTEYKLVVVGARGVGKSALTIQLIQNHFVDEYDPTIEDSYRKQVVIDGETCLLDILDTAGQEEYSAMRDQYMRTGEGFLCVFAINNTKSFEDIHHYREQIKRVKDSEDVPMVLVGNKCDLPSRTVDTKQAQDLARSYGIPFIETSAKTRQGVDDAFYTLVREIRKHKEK
Another assay concerns the target KRas G12C (Homo sapiens, UniProt P01116, G12C). Briefly: biochemical.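 Further: binding to KRas assessed by TR-FRET displacement after one hour incubation at room temperature, potency fitted from percent-of-control values.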
The target of the next assay is KRas WT (Homo sapiens, UniProt P01116). Description: biochemical.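 Further: binding to KRas read as TR-FRET displacement after a one-hour room-temperature incubation, IC50 derived from percent-of-control values.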
Chain of KRas WT (P01116 1-169 isoform P01116-2): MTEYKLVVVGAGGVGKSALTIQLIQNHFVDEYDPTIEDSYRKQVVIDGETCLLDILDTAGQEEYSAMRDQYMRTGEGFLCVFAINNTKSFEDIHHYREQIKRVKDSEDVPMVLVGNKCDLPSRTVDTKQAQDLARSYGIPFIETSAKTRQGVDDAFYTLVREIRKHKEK
Another assay deals with KRas G12D (Homo sapiens, UniProt P01116, G12D). Description: biochemical.
Chain of KRas G12D (P01116 1-169 isoform P01116-2 G12D): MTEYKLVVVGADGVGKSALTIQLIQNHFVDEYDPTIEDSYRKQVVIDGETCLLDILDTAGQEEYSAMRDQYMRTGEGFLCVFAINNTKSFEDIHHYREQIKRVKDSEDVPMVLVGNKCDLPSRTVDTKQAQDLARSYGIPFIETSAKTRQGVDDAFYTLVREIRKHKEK
For a further assay, the target named is T2, KRas Q61H (Homo sapiens, UniProt P01116, Q61H).
T2 construct: Biotinylated KRas (corresponding to amino acids 1-169, produced at Accelegan Inc.); biotin (biotinylated); purchased Accelegan Inc
T2 sequence (P01116 1-169 isoform P01116-2 Q61H): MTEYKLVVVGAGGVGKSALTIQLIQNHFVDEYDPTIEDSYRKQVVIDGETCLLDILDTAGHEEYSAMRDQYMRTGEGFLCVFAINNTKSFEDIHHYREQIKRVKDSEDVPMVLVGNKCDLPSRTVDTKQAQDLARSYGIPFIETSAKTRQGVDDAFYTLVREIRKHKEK
Briefly: KRas binding assay (TR-FRET displacement).

The next assay deals with KRas G12A (Homo sapiens, UniProt P01116, G12A). Briefly: biochemical.
Chain of KRas G12A (P01116 1-169 isoform P01116-2 G12A): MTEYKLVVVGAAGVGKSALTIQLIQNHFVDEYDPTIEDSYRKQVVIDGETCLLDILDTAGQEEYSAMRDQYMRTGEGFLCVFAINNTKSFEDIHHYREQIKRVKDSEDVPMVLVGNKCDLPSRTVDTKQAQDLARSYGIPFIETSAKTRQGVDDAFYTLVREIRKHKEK
The target of another assay is KRas G12V (Homo sapiens, UniProt P01116, G12V). Briefly: biochemical.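 Further: KRas binding measured by TR-FRET displacement at room temperature, IC50 fitted from percent of control values.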
Chain of KRas G12V (P01116 1-169 isoform P01116-2 G12V): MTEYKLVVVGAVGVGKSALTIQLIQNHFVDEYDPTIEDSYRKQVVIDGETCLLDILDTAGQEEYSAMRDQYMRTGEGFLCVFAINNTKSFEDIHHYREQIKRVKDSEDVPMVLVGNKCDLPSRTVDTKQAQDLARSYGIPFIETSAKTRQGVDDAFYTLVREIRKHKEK

Chain of KRas G12C (P01116 1-169 isoform P01116-2 G12C): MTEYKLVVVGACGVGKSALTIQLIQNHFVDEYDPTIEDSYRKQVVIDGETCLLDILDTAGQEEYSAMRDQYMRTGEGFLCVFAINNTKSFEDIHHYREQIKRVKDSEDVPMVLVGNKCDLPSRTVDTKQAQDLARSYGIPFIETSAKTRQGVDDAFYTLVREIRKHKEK
Chain of KRas G12S (P01116 1-169 isoform P01116-2 G12S): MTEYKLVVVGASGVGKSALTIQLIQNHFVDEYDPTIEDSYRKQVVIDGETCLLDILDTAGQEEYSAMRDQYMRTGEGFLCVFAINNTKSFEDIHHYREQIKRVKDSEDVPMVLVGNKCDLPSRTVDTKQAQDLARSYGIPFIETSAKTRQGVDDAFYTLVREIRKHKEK

Take `CC1(O)CCCN(c2nc(OCC3(CN4CCCC4)CC3)nc3c(F)c(-c4cccc5cccc(F)c45)ncc23)C1` (stereo not shown) [Example 257, 1-(8-fluoro-7-(8-fluoronaphthalen-1-yl)-2-((1-(pyrrolidin-1-ylmethyl)cyclopropyl)methoxy)pyrido[4,3-d]pyrimidin-4-yl)-3-methylpiperidin-3-ol]: the IC50 against KRas G12S is 5.22 µM; at KRas G13D, 3960 nM; on KRas G12R, 6.91 µM; at KRas G12C, 4 µM; at KRas WT, 4.03 µM; on KRas G12D, 2.43 µM. Besides, the IC50 at KRas Q61H turned out to be 6030 nM; against KRas G12A, 5.49 µM; against KRas G12V, 3.79 µM.
As to `Fc1c(-c2cccc3cccc(F)c23)ncc2c(NCCc3cnoc3)nc(OCC34CCCN3CCC4)nc12` [Example 219, 8-fluoro-7-(8-fluoronaphthalen-1-yl)-N-(2-(isoxazol-4-yl)ethyl)-2-((tetrahydro-1H-pyrrolizin-7a(5H)-yl)methoxy)pyrido[4,3-d]pyrimidin-4-amine], the IC50 against KRas G12S stood at 13.1 µM; on KRas G13D, 18100 nM; against KRas G12R, 4.78 µM; on KRas G12C, 5.65 µM; against KRas WT, 15 µM; against KRas G12D, 65.3 µM. Further, the IC50 on KRas Q61H came out at 20200 nM; on KRas G12A, 16.2 µM; on KRas G12V it was 8.83 µM.
For the compound `Fc1c(-c2cccc3cccc(F)c23)ncc2c(Nc3ccc4[nH]ncc4c3)nc(OCC34CCCN3CCC4)nc12` [Example 100, 8-fluoro-7-(8-fluoronaphthalen-1-yl)-2-((hexahydro-1H-pyrrolizin-7a-yl)methoxy)-N-(1H-indazol-5-yl)pyrido[4,3-d]pyrimidin-4-amine], the IC50 against KRas G12S was 28.8 µM; on KRas G13D, 49300 nM; against KRas G12R it was at least 100 µM; at KRas G12C it was 39.9 µM; on KRas WT, 40.3 µM; on KRas G12D, 11.8 µM. Moreover, the IC50 on KRas Q61H came to 42000 nM; on KRas G12A, 50.4 µM; against KRas G12V, 17.3 µM.
As to `O=C1CC2(CCCN(c3nc(OCC45CCCN4CCC5)nc4c(F)c(-c5cccc6cccc(F)c56)ncc34)C2)N1` (stereo not shown) [Example 97, 6-(8-fluoro-7-(8-fluoronaphthalen-1-yl)-2-((hexahydro-1H-pyrrolizin-7a-yl)methoxy)pyrido[4,3-d]pyrimidin-4-yl)-1,6-diazaspiro[3.5]nonan-2-one], the IC50 against KRas G12S was 0.272 µM; at KRas G13D it was 297 nM; at KRas G12R, 0.348 µM; on KRas G12C, 0.192 µM; against KRas WT, 0.333 µM; against KRas G12D, 0.175 µM. For the same compound, the values for the IC50 on KRas Q61H, against KRas G12A and against KRas G12V were 412 nM, 0.227 µM and 0.189 µM, respectively.
On to `CCc1cccc2cccc(-c3ncc4c(NCc5c[nH]c6ncccc56)nc(OCC56CCCN5CCC6)nc4c3F)c12` [Example 205, N-((1H-pyrrolo[2,3-b]pyridin-3-yl)methyl)-7-(8-ethylnaphthalen-1-yl)-8-fluoro-2-((hexahydro-1H-pyrrolizin-7a-yl)methoxy)pyrido[4,3-d]pyrimidin-4-amine], for which the IC50 on KRas G12S stood at 0.016 µM; on KRas G13D it was 69 nM; at KRas G12R it was 0.007 µM; against KRas G12C, 0.01 µM; against KRas WT, 0.08 µM; at KRas G12D, 0.307 µM. In addition, the 50% inhibitory concentration (IC50) at KRas Q61H stood at 95 nM; at KRas G12A it was 0.013 µM; at KRas G12V, 0.008 µM.
Consider `Fc1c(-c2cccc3cccc(F)c23)ncc2c(NCc3ccc4[nH]cnc4c3)nc(OCC34CCCN3CCC4)nc12` [Example 80, N-((1H-benzo[d]imidazol-5-yl)methyl)-8-fluoro-7-(8-fluoronaphthalen-1-yl)-2-((hexahydro-1H-pyrrolizin-7a-yl)methoxy)pyrido[4,3-d]pyrimidin-4-amine], for which the IC50 on KRas G12S is 2.57 µM; on KRas G13D it was 6310 nM; on KRas G12R, 1.47 µM; against KRas G12C it was 1.25 µM; against KRas WT it was 6.84 µM; against KRas G12D it was 29.8 µM. The IC50 amounted to 10700 nM on KRas Q61H, 1.58 µM on KRas G12A and 1.59 µM on KRas G12V.
On to `O=C1NCC(CNc2nc(OCC34CCCN3CCC4)nc3c(F)c(-c4cccc5cccc(F)c45)ncc23)O1` (stereo not shown) [Example 110, 5-(((8-fluoro-7-(8-fluoronaphthalen-1-yl)-2-((tetrahydro-1H-pyrrolizin-7a(5H)-yl)methoxy)pyrido[4,3-d]pyrimidin-4-yl)amino)methyl)oxazolidin-2-one], for which the IC50 worked out at 4.37 µM on KRas G12S; 9330 nM at KRas G13D; 2.48 µM against KRas G12R; 5.22 µM on KRas G12C; 8.81 µM at KRas WT; 26.9 µM on KRas G12D. The IC50 on KRas Q61H was 10100 nM; against KRas G12A it was 9.28 µM; on KRas G12V it was 3.97 µM.
As to `Fc1c(-c2cccc3cccc(F)c23)ncc2c(N3CCCC(c4nc[nH]n4)C3)nc(OCC34CCCN3CCC4)nc12` (stereo not shown) [Example 30, 4-(3-(1H-1,2,4-triazol-3-yl)piperidin-1-yl)-8-fluoro-7-(8-fluoronaphthalen-1-yl)-2-((hexahydro-1H-pyrrolizin-7a-yl)methoxy)pyrido[4,3-d]pyrimidine], the IC50 on KRas G12S was found to be 1.45 µM; on KRas G13D it was 2000 nM; at KRas G12R it was 1.27 µM; against KRas G12C it was 1.29 µM; on KRas WT it was 1.74 µM; against KRas G12D, 0.209 µM. Also, the figures for the IC50 on KRas Q61H, at KRas G12A and against KRas G12V were 2900 nM, 1.76 µM and 0.8 µM, respectively.
As to `Fc1c(-c2cccc3cccc(F)c23)ncc2c(NCc3cnn4cccnc34)nc(OCC34CCCN3CCC4)nc12` [Example 214, 8-fluoro-7-(8-fluoronaphthalen-1-yl)-N-(pyrazolo[1,5-a]pyrimidin-3-ylmethyl)-2-((tetrahydro-1H-pyrrolizin-7a(5H)-yl)methoxy)pyrido[4,3-d]pyrimidin-4-amine], the IC50 on KRas G12S was 34.6 µM; on KRas G13D it was 95100 nM; against KRas G12R, 16.4 µM; at KRas G12C, 9.59 µM; on KRas WT, 60 µM; at KRas G12D, at least 100 µM. Moreover, the IC50 on KRas Q61H came out at 81100 nM; at KRas G12A, 28.8 µM; at KRas G12V, 12.6 µM.
Regarding `CCc1c(F)ccc2cc(O)cc(-c3ncc4c(NCc5c[nH]c6ncccc56)nc(OC[C@@]56CCCN5C[C@H](F)C6)nc4c3F)c12` [Example 62, 4-(4-(((1H-pyrrolo[2,3-b]pyridin-3-yl)methyl)amino)-8-fluoro-2-(((2R,7aS)-2-fluorohexahydro-1H-pyrrolizin-7a-yl)methoxy)pyrido[4,3-d]pyrimidin-7-yl)-5-ethyl-6-fluoronaphthalen-2-ol], the IC50 on KRas G13D was 3 nM; on KRas G12R, at most 0.002 µM; against KRas G12D, 0.003 µM; at KRas Q61H, at most 2 nM; on KRas G12V, at most 0.002 µM.
Consider `O=C1CCC2(CCCN(c3nc(OCC45CCCN4CCC5)nc4c(F)c(-c5cccc6cccc(F)c56)ncc34)C2)C1` (stereo not shown) [Example 46, 7-(8-fluoro-7-(8-fluoronaphthalen-1-yl)-2-((hexahydro-1H-pyrrolizin-7a-yl)methoxy)pyrido[4,3-d]pyrimidin-4-yl)-7-azaspiro[4.5]decan-2-one], for which the IC50 on KRas G13D was 8790 nM; at KRas G12R, 22.5 µM; at KRas G12D, 14.1 µM; at KRas Q61H it was 18500 nM; against KRas G12V, 24 µM.
In the case of `CC1(CNc2nc(OCC34CCCN3CCC4)nc3c(F)c(-c4cccc5cccc(F)c45)ncc23)CNC(=O)C1` (stereo not shown) [Example 35, 4-(((8-fluoro-7-(8-fluoronaphthalen-1-yl)-2-((hexahydro-1H-pyrrolizin-7a-yl)methoxy)pyrido[4,3-d]pyrimidin-4-yl)amino)methyl)-4-methylpyrrolidin-2-one], the IC50 at KRas G13D stood at 1660 nM; against KRas G12R, 1.61 µM; at KRas G12D, 12.1 µM; at KRas Q61H, 4010 nM; at KRas G12V it was 2.52 µM.
For `Fc1c(-c2cccc3cccc(F)c23)ncc2c(N3CCCC4(CCC(F)C4)C3)nc(OCC34CCCN3CCC4)nc12` (stereo not shown) [Example 48, 8-fluoro-4-(2-fluoro-7-azaspiro[4.5]decan-7-yl)-7-(8-fluoronaphthalen-1-yl)-2-((hexahydro-1H-pyrrolizin-7a-yl)methoxy)pyrido[4,3-d]pyrimidine] the same measures were 16000 nM, 24.1 µM, 18.4 µM, 19900 nM and 20.4 µM.
With `CCc1c(F)ccc2cc(O)cc(-c3ncc4c(NCc5n[nH]cc5C)nc(OC[C@@]56CCCN5C[C@H](F)C6)nc4c3F)c12` [Example 161, 5-ethyl-6-fluoro-4-(8-fluoro-2-(((2R,7aS)-2-fluorohexahydro-1H-pyrrolizin-7a-yl)methoxy)-4-(((4-methyl-1H-pyrmzol-3-yl)methyl)amino)pyrido[4,3-d]pyrimidin-7-yl)naphthalen-2-ol], the IC50 came out at 0.015 µM against KRas G12S; 16 nM at KRas G13D; 0.009 µM on KRas G12R; 0.007 µM at KRas G12C; 0.02 µM against KRas WT; 0.068 µM on KRas G12D. Further, the IC50 on KRas Q61H is 17 nM; on KRas G12V, 0.007 µM.
